Laboratory results as given in the NIST ThermoML archive (doi:10.1021/je700339f).
± gives the expanded uncertainty stated by the source.

Test: xn = mol fraction of the nth substance listed
Conditions: 298 K, Liquid

Structure (SMILES): ClCCCCCCCl [1,6-dichlorohexane] + CN(C)C=O
- mass density (15000 kPa, x2 = 0.7034): 1003.9 ± 3.5 kg/m3
- mass density (15000 kPa, x2 = 0.8019): 989.5 ± 3.8 kg/m3
- mass density (15000 kPa, x2 = 0.9008): 972.6 ± 4 kg/m3
- mass density (15400 kPa, x2 = 0.5033): 1029.2 ± 3.1 kg/m3
- mass density (15400 kPa, x2 = 0.6037): 1017.6 ± 3.3 kg/m3
- mass density (15500 kPa, x2 = 0.0986): 1066.9 ± 2.8 kg/m3
- mass density (15500 kPa, x2 = 0.2013): 1059 ± 2.8 kg/m3
- mass density (15500 kPa, x2 = 0.3197): 1048.6 ± 2.9 kg/m3
- mass density (15500 kPa, x2 = 0.4014): 1040.4 ± 3 kg/m3
- mass density (15500 kPa, x2 = 0.7034): 1004.2 ± 3.5 kg/m3
- mass density (15500 kPa, x2 = 0.8019): 989.8 ± 3.8 kg/m3
- mass density (15500 kPa, x2 = 0.9008): 972.8 ± 4 kg/m3
- mass density (15900 kPa, x2 = 0.2013): 1059.3 ± 2.8 kg/m3
- mass density (15900 kPa, x2 = 0.4014): 1040.7 ± 3 kg/m3
- mass density (15900 kPa, x2 = 0.8019): 990.1 ± 3.8 kg/m3
- mass density (16000 kPa, x2 = 0.0986): 1067.1 ± 3.2 kg/m3
- mass density (16000 kPa, x2 = 0.3197): 1048.8 ± 2.9 kg/m3
- mass density (16000 kPa, x2 = 0.5033): 1029.6 ± 3.1 kg/m3
- mass density (16000 kPa, x2 = 0.6037): 1018 ± 3.3 kg/m3
- mass density (16000 kPa, x2 = 0.7034): 1004.5 ± 3.5 kg/m3
- mass density (16000 kPa, x2 = 0.9008): 973.1 ± 2.8 kg/m3
- mass density (16400 kPa, x2 = 0.2013): 1059.6 ± 2.9 kg/m3
- mass density (16400 kPa, x2 = 0.4014): 1041 ± 3 kg/m3
- mass density (16500 kPa, x2 = 0.0986): 1067.4 ± 3.2 kg/m3
- mass density (16500 kPa, x2 = 0.3197): 1049 ± 2.9 kg/m3
- mass density (16500 kPa, x2 = 0.5033): 1030 ± 3.1 kg/m3
- mass density (16500 kPa, x2 = 0.6037): 1018.2 ± 3.3 kg/m3
- mass density (16500 kPa, x2 = 0.7034): 1004.8 ± 3.5 kg/m3
- mass density (16500 kPa, x2 = 0.8019): 990.4 ± 3.8 kg/m3
- mass density (16500 kPa, x2 = 0.9008): 973.4 ± 4 kg/m3
- mass density (17000 kPa, x2 = 0.0986): 1067.8 ± 2.8 kg/m3
- mass density (17000 kPa, x2 = 0.2013): 1060 ± 2.9 kg/m3
- mass density (17000 kPa, x2 = 0.3197): 1049.4 ± 2.9 kg/m3
- mass density (17000 kPa, x2 = 0.4014): 1041.4 ± 3 kg/m3
- mass density (17000 kPa, x2 = 0.5033): 1030.3 ± 3.1 kg/m3
- mass density (17000 kPa, x2 = 0.6037): 1018.5 ± 3.3 kg/m3
- mass density (17000 kPa, x2 = 0.7034): 1005.1 ± 3.5 kg/m3
- mass density (17000 kPa, x2 = 0.8019): 990.7 ± 3.8 kg/m3
- mass density (17000 kPa, x2 = 0.9008): 973.7 ± 4 kg/m3
- mass density (17500 kPa, x2 = 0.0986): 1068.2 ± 2.8 kg/m3
- mass density (17500 kPa, x2 = 0.2013): 1060.3 ± 2.9 kg/m3
- mass density (17500 kPa, x2 = 0.3197): 1049.7 ± 2.9 kg/m3
- mass density (17500 kPa, x2 = 0.4014): 1041.7 ± 3 kg/m3
- mass density (17500 kPa, x2 = 0.5033): 1030.5 ± 3.1 kg/m3
- mass density (17500 kPa, x2 = 0.6037): 1018.8 ± 3.3 kg/m3
- mass density (17500 kPa, x2 = 0.7034): 1005.4 ± 3.5 kg/m3
- mass density (17500 kPa, x2 = 0.8019): 990.9 ± 3.8 kg/m3
- mass density (17500 kPa, x2 = 0.9008): 974 ± 4 kg/m3
- mass density (17900 kPa, x2 = 0.3197): 1050 ± 2.9 kg/m3
- mass density (17900 kPa, x2 = 0.8019): 991.2 ± 3.8 kg/m3
- mass density (18000 kPa, x2 = 0.0986): 1068.5 ± 2.9 kg/m3
- mass density (18000 kPa, x2 = 0.2013): 1060.6 ± 2.9 kg/m3
- mass density (18000 kPa, x2 = 0.4014): 1042 ± 3 kg/m3
- mass density (18000 kPa, x2 = 0.5033): 1030.9 ± 3.1 kg/m3
- mass density (18000 kPa, x2 = 0.6037): 1019.1 ± 3.3 kg/m3
- mass density (18000 kPa, x2 = 0.7034): 1005.6 ± 3.5 kg/m3
- mass density (18000 kPa, x2 = 0.9008): 974.3 ± 2.8 kg/m3
- mass density (18500 kPa, x2 = 0.0986): 1068.8 ± 2.9 kg/m3
- mass density (18500 kPa, x2 = 0.2013): 1060.9 ± 2.9 kg/m3
- mass density (18500 kPa, x2 = 0.3197): 1050.3 ± 2.9 kg/m3
- mass density (18500 kPa, x2 = 0.4014): 1042.3 ± 3 kg/m3
- mass density (18500 kPa, x2 = 0.5033): 1031.2 ± 3.1 kg/m3
- mass density (18500 kPa, x2 = 0.6037): 1019.4 ± 3.3 kg/m3
- mass density (18500 kPa, x2 = 0.7034): 1005.9 ± 3.5 kg/m3
- mass density (18500 kPa, x2 = 0.8019): 991.5 ± 3.8 kg/m3
- mass density (18500 kPa, x2 = 0.9008): 974.7 ± 4 kg/m3
- mass density (19000 kPa, x2 = 0.0986): 1069.2 ± 2.9 kg/m3
- mass density (19000 kPa, x2 = 0.2013): 1061.2 ± 2.9 kg/m3
- mass density (19000 kPa, x2 = 0.3197): 1050.7 ± 2.9 kg/m3
- mass density (19000 kPa, x2 = 0.4014): 1042.6 ± 3 kg/m3
- mass density (19000 kPa, x2 = 0.5033): 1031.5 ± 3.1 kg/m3
- mass density (19000 kPa, x2 = 0.6037): 1019.8 ± 3.3 kg/m3
- mass density (19000 kPa, x2 = 0.7034): 1006.3 ± 3.5 kg/m3
- mass density (19000 kPa, x2 = 0.8019): 991.9 ± 3.8 kg/m3
- mass density (19000 kPa, x2 = 0.9008): 975.1 ± 4 kg/m3
- mass density (19400 kPa, x2 = 0.2013): 1061.5 ± 2.9 kg/m3
- mass density (19500 kPa, x2 = 0.0986): 1069.5 ± 3.2 kg/m3
- mass density (19500 kPa, x2 = 0.3197): 1051 ± 2.9 kg/m3
- mass density (19500 kPa, x2 = 0.4014): 1042.9 ± 3 kg/m3
- mass density (19500 kPa, x2 = 0.5033): 1031.8 ± 3.1 kg/m3
- mass density (19500 kPa, x2 = 0.6037): 1020.1 ± 3.3 kg/m3
- mass density (19500 kPa, x2 = 0.7034): 1006.6 ± 3.5 kg/m3
- mass density (19500 kPa, x2 = 0.8019): 992.2 ± 3.8 kg/m3
- mass density (19500 kPa, x2 = 0.9008): 975.4 ± 4 kg/m3
- mass density (20000 kPa, x2 = 0.0986): 1069.8 ± 2.9 kg/m3
- mass density (20000 kPa, x2 = 0.2013): 1062 ± 2.9 kg/m3
- mass density (20000 kPa, x2 = 0.3197): 1051.5 ± 2.9 kg/m3
- mass density (20000 kPa, x2 = 0.4014): 1043.2 ± 3.1 kg/m3
- mass density (20000 kPa, x2 = 0.5033): 1032.2 ± 3.1 kg/m3
- mass density (20000 kPa, x2 = 0.6037): 1020.5 ± 3.3 kg/m3
- mass density (20000 kPa, x2 = 0.7034): 1007 ± 3.5 kg/m3
- mass density (20000 kPa, x2 = 0.8019): 992.5 ± 3.8 kg/m3
- mass density (20000 kPa, x2 = 0.9008): 975.8 ± 4 kg/m3
